Reference: patent publication US20240158446A1, “CYCLIC COMPOUND HAVING SELECTIVE INHIBITORY ACTION ON KRAS OVER HRAS AND NRAS” (CHUGAI SEIYAKU KABUSHIKI KAISHA, priority 2021, published 2024)
Where two headings read alike, the source gives them in different places. *1 amine or outer side, *2 acyl side, *3 side chain or, on linkers, in order; H or OH if unused. Where a SMILES comes first, the peptide text is derived from it. Bridges are numbered along the chain shown (N, C = ends). [ ]: non-standard residue; d: D form. The star is where a group is joined. hPhe(3,5-F2-4-CF3) = N[C@@H](CCc1cc(F)c(C(F)(F)F)c(F)c1)C(=O)O; hPhe(3-Cl-4-CF3) = N[C@@H](CCc1ccc(C(F)(F)F)c(Cl)c1)C(=O)O; NPrPhe(4-CF3) = CCCN[C@@H](Cc1ccc(C(F)(F)F)cc1)C(=O)O; NEtPhe(4-CF3) = CCN[C@@H](Cc1ccc(C(F)(F)F)cc1)C(=O)O; X33 = C[C@@H]1CN([*:1])[C@@H]1C(=O)[*:2]; Morpholine(3S-CO) = O=C(O)[C@@H]1COCCN1; NMeGly(cPent) = CN[C@H](C(=O)O)C1CCCC1; Pro(4,4-F2) = O=C(O)[C@@H]1CC(F)(F)CN1; αMeF = C[C@](N)(Cc1ccccc1)C(=O)O; NMeD = CN[C@@H](CC(=O)O)C(=O)O; NMeL = CN[C@@H](CC(C)C)C(=O)O; Morpholide = C1CN(*)CCO1; Ac5c = NC1(C(=O)O)CCCC1; Aze = O=C(O)[C@@H]1CCN1; Ac4c = NC1(C(=O)O)CCC1; Aib = CC(C)(N)C(=O)O; Sar = CNCC(=O)O

Columns and labels:
[1] = target: GDP-bound HRAS wild-type protein (Homo sapiens, UniProt P01112); assay: Binding to HRAS by surface plasmon resonance (SPR), Single Cycle Kinetics; details: for HRAS/KRAS (ratio of KD value for HRAS to KD value for KRAS) / HRAS/KRAS (ratio of KD value with respect to HRAS to KD value with respect to KRAS): GDP-bound HRAS wild-type protein vs GDP-bound KRAS wild-type protein
[2] = system: human lung cancer strain NCI-H441;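 note: cell proliferation inhibition after four days measured by CellTiter-Glo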
[3] = target: GDP-bound NRAS wild-type protein (Homo sapiens, UniProt P01111); assay: Binding to NRAS by surface plasmon resonance (SPR), Single Cycle Kinetics; details: for NRAS/KRAS (ratio of KD value for NRAS to KD value for KRAS) / NRAS/KRAS (ratio of KD value with respect to NRAS to KD value with respect to KRAS): GDP-bound NRAS wild-type protein vs GDP-bound KRAS wild-type protein
Chain of GDP-bound NRAS wild-type protein (P01111 whole entry): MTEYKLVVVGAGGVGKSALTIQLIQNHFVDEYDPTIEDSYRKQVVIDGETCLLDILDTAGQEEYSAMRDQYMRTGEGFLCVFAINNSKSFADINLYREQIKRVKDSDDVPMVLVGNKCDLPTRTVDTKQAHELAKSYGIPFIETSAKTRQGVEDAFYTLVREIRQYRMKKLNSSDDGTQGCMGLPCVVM

Chain of GDP-bound HRAS wild-type protein (P01112 whole entry): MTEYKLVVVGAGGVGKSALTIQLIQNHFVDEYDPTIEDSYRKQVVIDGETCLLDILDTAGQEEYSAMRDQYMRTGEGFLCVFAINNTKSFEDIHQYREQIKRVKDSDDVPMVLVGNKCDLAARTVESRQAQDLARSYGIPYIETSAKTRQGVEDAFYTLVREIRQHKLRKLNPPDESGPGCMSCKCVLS

Compound	HRAS/KRAS (ratio of KD value for HRAS to KD value for KRAS) ([1]; SPR)	IC50 [2]	NRAS/KRAS (ratio of KD value for NRAS to KD value for KRAS) ([3]; SPR)	other results
CCCN1C(=O)CN(C)C(=O)[C@@H]2CCN2C(=O)[C@H]([C@@H](C)CC)NC(=O)[C@H](CC(C)C)N(C)C(=O)C[C@@H](C(=O)N2CCOCC2)NC(=O)[C@H](C2CCCC2)N(C)C(=O)C2(CCC2)NC(=O)[C@@H]2CC(F)(F)CN2C(=O)[C@H](CCc2ccc(C(F)(F)F)c(Cl)c2)NC(=O)CN(C)C(=O)[C@@H]1Cc1ccc(C(F)(F)F)cc1 [PP0340] ([NMeL]I[Aze][Sar][NPrPhe(4-CF3)][Sar][hPhe(3-Cl-4-CF3)][Pro(4,4-F2)][Ac4c][NMeGly(cPent)]D-Morpholide; lactam N-11)	B (a compound having 3 or more and less than 10 is denoted as B)	177 nM	B (a compound having 3 or more and less than 10 is denoted as B)	–
CCCN1C(=O)CN(C)C(=O)[C@@H]2CCN2C(=O)[C@H]([C@@H](C)CC)NC(=O)[C@H](CC(C)C)N(C)C(=O)C[C@@H](C(=O)N2CCOCC2)N(C)C(=O)[C@H](C2CCCC2)N(C)C(=O)[C@](C)(Cc2ccccc2)NC(=O)[C@@H]2CCCN2C(=O)[C@H](CCc2cc(F)c(C(F)(F)F)c(F)c2)NC(=O)CN(C)C(=O)[C@@H]1Cc1ccc(C(F)(F)F)cc1 [PP0778] ([NMeL]I[Aze][Sar][NPrPhe(4-CF3)][Sar][hPhe(3,5-F2-4-CF3)]P[αMeF][NMeGly(cPent)][NMeD]-Morpholide; lactam N-11)	–	546 nM	–	HRAS/KRAS (ratio of KD value with respect to HRAS to KD value with respect to KRAS) ([1]; SPR): B (a compound having 3 or more and less than 10 is denoted as B); NRAS/KRAS (ratio of KD value with respect to NRAS to KD value with respect to KRAS) ([3]; SPR): B (a compound having 3 or more and less than 10 is denoted as B)
CCCN1C(=O)CN(C)C(=O)[C@@H]2CCN2C(=O)[C@H]([C@@H](C)CC)NC(=O)[C@H](CC(C)C)N(C)C(=O)C[C@@H](C(=O)N2CCOCC2)N(C)C(=O)[C@H](C2CCCC2)N(C)C(=O)C2(CCCC2)NC(=O)[C@@H]2COCCN2C(=O)[C@H](CCc2ccc(C(F)(F)F)c(Cl)c2)NC(=O)CN(C)C(=O)[C@@H]1Cc1ccc(C(F)(F)F)cc1 [PP0313] ([NMeL]I[Aze][Sar][NPrPhe(4-CF3)][Sar][hPhe(3-Cl-4-CF3)][Morpholine(3S-CO)][Ac5c][NMeGly(cPent)][NMeD]-Morpholide; lactam N-11)	C (A compound having a KD ratio of 0.1 or more and less than 3 is denoted as C)	56.6 nM	B (a compound having 3 or more and less than 10 is denoted as B)	–
CC[C@H](C)[C@@H]1NC(=O)[C@H](CC(C)C)N(C)C(=O)C[C@@H](C(=O)N2CCOCC2)N(C)C(=O)[C@H](C2CCCC2)N(C)C(=O)C(C)(C)NC(=O)[C@@H]2CCCN2C(=O)[C@H](CCc2ccc(C(F)(F)F)c(Cl)c2)NC(=O)CN(C)C(=O)[C@H](Cc2ccc(C(F)(F)F)cc2)N(CC)C(=O)CN(C)C(=O)CN(C)C1=O [PP0235] ([NMeL]I[Sar][Sar][NEtPhe(4-CF3)][Sar][hPhe(3-Cl-4-CF3)]P[Aib][NMeGly(cPent)][NMeD]-Morpholide; lactam N-11)	C (A compound having a KD ratio of 0.1 or more and less than 3 is denoted as C)	4.5 nM	B (a compound having 3 or more and less than 10 is denoted as B)	–
CCO[C@@H]1C[C@H]2C(=O)NC3(CCC3)C(=O)N(C)[C@@H](C3CCCC3)C(=O)N(C)[C@H](C(=O)N(C)C)CC(=O)N(C)[C@@H](CC(C)(C)C)C(=O)N[C@@H]([C@@H](C)CC)C(=O)N(C)CC(=O)N(C)[C@H]3CCCCCN(C3=O)[C@@H](Cc3ccc(C(F)(F)F)cc3)C(=O)N(C)CC(=O)N[C@@H](CCc3cc(F)c(C(F)(F)F)c(F)c3)C(=O)N2C1 [PP0669]	–	20.3 nM	–	HRAS/KRAS (ratio of KD value with respect to HRAS to KD value with respect to KRAS) ([1]; SPR): B (a compound having 3 or more and less than 10 is denoted as B); NRAS/KRAS (ratio of KD value with respect to NRAS to KD value with respect to KRAS) ([3]; SPR): B (a compound having 3 or more and less than 10 is denoted as B)
CCCOC[C@H]1C(=O)N[C@@H]([C@@H](C)CC)C(=O)N(C)CC(=O)N(C)[C@H]2C/C=C\CCN(C2=O)[C@@H](Cc2ccc(C)cc2)C(=O)N(C)CC(=O)N[C@@H](CCc2cc(F)c(C(F)(F)F)c(F)c2)C(=O)N2C[C@H](CCC)C[C@H]2C(=O)NC2(CCC2)C(=O)N(C)[C@@H](C2CCCC2)C(=O)N(C)[C@H](C(=O)N(C)C)CC(=O)N1C [PP2232]	A (a compound having 10 or more and less than 20 is denoted as A)	18.7 nM	A (a compound having 10 or more and less than 20 is denoted as A)	–
CCCN1C(=O)CN(C)C(=O)[C@@H]2[C@H](C)CN2C(=O)[C@H]([C@@H](C)CC)NC(=O)[C@H](CC(C)C)N(C)C(=O)C[C@@H](C(=O)N2CCOCC2)N(C)C(=O)[C@H](C2CCCC2)N(C)C(=O)C2(CCCC2)NC(=O)[C@@H]2CCCN2C(=O)[C@H](CCc2ccc(C(F)(F)F)c(Cl)c2)NC(=O)CN(C)C(=O)[C@@H]1Cc1ccc(C(F)(F)F)cc1 [PP0257] ([NMeL]I[X33][Sar][NPrPhe(4-CF3)][Sar][hPhe(3-Cl-4-CF3)]P[Ac5c][NMeGly(cPent)][NMeD]-Morpholide; lactam N-11)	B (a compound having 3 or more and less than 10 is denoted as B)	30.8 nM	B (a compound having 3 or more and less than 10 is denoted as B)	–
CCO[C@@H]1C[C@H]2C(=O)NC3(CCC3)C(=O)N(C)[C@@H](C3CCCC3)C(=O)N(C)[C@H](C(=O)N(C)C)CC(=O)N(C)[C@@H](CC)C(=O)N[C@@H]([C@@H](C)CC)C(=O)N(C)CC(=O)N(C)[C@H]3CCCCCN(C3=O)[C@@H](Cc3ccc(F)c(C)c3)C(=O)N(C)CC(=O)N[C@@H](CCc3cc(F)c(C(F)(F)F)c(F)c3)C(=O)N2C1 [PP0912]	B (a compound having 3 or more and less than 10 is denoted as B)	40.5 nM	B (a compound having 3 or more and less than 10 is denoted as B)	–
CC[C@H](C)[C@@H]1NC(=O)[C@H](CC(C)C)N(C)C(=O)C[C@@H](C(=O)N2CCOCC2)NC(=O)[C@H](C2CCCC2)N(C)C(=O)C2(CCCC2)NC(=O)[C@@H]2CCCN2C(=O)[C@H](CCc2cc(F)c(C(F)(F)F)c(F)c2)NC(=O)CN(C)C(=O)[C@H](Cc2ccc(C(F)(F)F)cc2)N2CCCC[C@@H](C2=O)N(C)C(=O)CN(C)C1=O [PP0541]	–	83.3 nM	–	HRAS/KRAS (ratio of KD value with respect to HRAS to KD value with respect to KRAS) ([1]; SPR): B (a compound having 3 or more and less than 10 is denoted as B); NRAS/KRAS (ratio of KD value with respect to NRAS to KD value with respect to KRAS) ([3]; SPR): B (a compound having 3 or more and less than 10 is denoted as B)
CCC[C@H]1C(=O)N[C@@H]([C@@H](C)CC)C(=O)N(C)CC(=O)N(C)[C@H]2C/C=C\CCN(C2=O)[C@@H](Cc2ccc(C)cc2)C(=O)N(C)CC(=O)N[C@@H](CCc2ccc(C(F)(F)F)c(OC)c2)C(=O)N2CC3(CC3)C[C@H]2C(=O)NC2(CC(C)(C)C2)C(=O)N(C)[C@@H]([C@@H](C)CC)C(=O)N(C)[C@H](C(=O)N(C)C)CC(=O)N1C [PP3011]	B (a compound having 3 or more and less than 10 is denoted as B)	31.1 nM	A (a compound having 10 or more and less than 20 is denoted as A)	–
CCO[C@@H]1C[C@H]2C(=O)NC3(CC(C)(C)C3)C(=O)N(C)[C@@H](C3CCCC3)C(=O)N(C)[C@H](C(=O)N(C)C)CC(=O)N(C)[C@@H](CC(C)C)C(=O)N[C@@H]([C@@H](C)CC)C(=O)N(C)CC(=O)N(C)[C@H]3C/C=C\CCN(C3=O)[C@@H](Cc3ccc(C(C)(F)F)cc3)C(=O)N(C)CC(=O)N[C@@H](CCc3ccc(C(F)(F)F)c(OC)c3)C(=O)N2C1 [PP2690]	–	–	–	HRAS/KRAS (ratio of KD value with respect to GDP-bound HRAS wild-type protein to KD value with respect to KRAS) ([1]; SPR KD ratio HRAS/KRAS, class symbols): A (a compound having 10 or more and less than 20 is denoted as A); IC50 ([2]; read-out: NCI-H441 IC50, NCI-H441 cells, four days, CellTiter-Glo): 3 nM; NRAS/KRAS (ratio of KD value with respect to GDP-bound NRAS wild-type protein to KD value with respect to KRAS) ([3]; SPR KD ratio NRAS/KRAS, class symbols): AA (a compound having 20 or more is denoted as AA)
CCCO[C@@H]1C[C@H]2C(=O)NC3(CC(C)(C)C3)C(=O)N(C)[C@@H](C3CCCC3)C(=O)N(C)[C@H](C(=O)N(C)CC)CC(=O)N(C)[C@H]3CCCc4ccc(cc4)C[C@@H](C(=O)N(C)CC(=O)N[C@@H](CCc4ccc(C(F)(F)F)c(OC)c4)C(=O)N2C1)N1CC/C=C\C[C@@H](C1=O)N(C)C(=O)CN(C)C(=O)[C@H]([C@@H](C)CC)NC3=O [PP3083]	A (a compound having 10 or more and less than 20 is denoted as A)	–	A (a compound having 10 or more and less than 20 is denoted as A)	ratio of the KD value with respect to GDP-bound HRAS wild-type protein to the KD value with respect to KRAS ([1]; SPR, KD(HRAS)/KD(KRAS)): A (a compound having 10 or more and less than 20 is denoted as A); IC50 ([2]; read-out: NCI-H441 cell proliferation inhibitory activity, 50% proliferation inhibitory concentration (IC50 value), NCI-H441, four days, CellTiter-Glo): 2.5 nM; ratio of the KD value with respect to GDP-bound NRAS wild-type protein to the KD value with respect to KRAS ([3]; SPR, KD(NRAS)/KD(KRAS)): A (a compound having 10 or more and less than 20 is denoted as A)
